# Measurements reported in patent US8217167B2, “Phenanthrylphenol linked pyrrolo [2, l-c] [l, 4] benzodiazepine hybrids as potential antitumour agents and process for the preparation thereof” (Council of Scientific & Industrial Research, priority 2008, dated 2012).
# Tests used:
# [1] = tested on: duplex-form calf thymus DNA (CT-DNA); experiment: Thermal denaturation studies with calf thymus DNA; assay type: binding; conditions: [PBD]:[DNA] molar ratio 1:5, CT-DNA 100 μM, ligand 20 μM, sodium phosphate buffer pH 7.00; for ΔTm after incubation at 37° C. for 0 h: 0 h incubation at 37° C.; for ΔTm after incubation at 37° C. for 18 h: 18 h incubation at 37° C.
# Protocol: Compounds have been subjected to thermal denaturation studies with duplex-form calf thymus DNA (CT-DNA) using a modification of a reported procedure (Newman, M. S. Carcinog-compr. Surv. 1976, 1, 203; (b) Hecht, S. S.; Loy, M.; Hoffman, Carcinog-compr. Surv. 1976, 1, 325). Working solutions in aqueous buffer (10 mM NaH2PO4/Na2HPO4, 1 mM Na2EDTA, pH 7.00+0.01) containing CT-DNA (100 μm in phosphate) and the PBD (20 μm) have been prepared by addition of concentrated PBD solutions in DMSO to obtain a fixed [PBD]/[DNA] molar ratio of 1:5. The DNA-PBD solutions have been incubated at 37° C. for 0 and 18 h prior to analysis. Samples have been monitored at 260 nm using a Beckman DU-800 spectrophotometer fitted with high performance temperature controller, and heated at 1° C. min^−1 in the 40-110° C. range. DNA helix→coil transition temperatures (Tm) have been obtained from the maxima in the d(A260)/dT derivative plots. Drug-induced alterations in DNA melting behavior are given by: ΔTm=Tm(DNA+PBD)−Tm(DNA alone), where the Tm value for the PBD-free CT-DNA is 69.1±0.01.
# The DNA binding activity for these new C8-linked phenanthrylphenol-PBD hybrids has been examined by thermal denaturation studies using calf thymus (CT) DNA. […] The data for the compounds 6a-c is included in Table 1 for comparison.
# [2] = tested on: Colon HCT-15; assay type: cell-based; conditions: human
# From the text: (§1) The compounds 6a-c (n=1-3) were examined for preliminary in vitro cytotoxicity on six cell lines, among these compound's 6a has shown promising activity as shown in Table 2 and was further taken up detailed in vitro anticancer activity at the National Cancer Institute, Maryland, USA.
# [3] = tested on: Ovary OVCAR-5; assay type: cell-based; conditions: human
# From the text: as §1
# [4] = tested on: Lung A-549; assay type: cell-based; conditions: human
# From the text: as §1
# [5] = tested on: Neuroblastoma IMR-32; assay type: cell-based; conditions: human
# From the text: as §1
# [6] = tested on: Colon 502713; assay type: cell-based; conditions: human
# From the text: as §1
# [7] = tested on: Liver HEP-2; assay type: cell-based; conditions: human
# From the text: as §1
# [8] = tested on: Breast cancer cell lines; experiment: NCI in vitro anticancer activity (SRB assay), Breast panel; assay type: cell-based; conditions: Homo sapiens
# Protocol: (§2) The compound 6a was evaluated for in vitro anticancer activity against sixty human tumour cells derived from nine cancer panels (leukemia, non-small-cell lung, colon, CNS, melanoma, ovarian, prostate, renal and breast cancer) as shown in Table 4. For compound 6a, dose response curves for each cell line were measured at a minimum of five concentrations at 10 fold dilutions. A protocol of 48 h continuous drug exposure was used and a sulforhodamine B (SRB) protein assay was used to estimate cell viability or growth. The concentration causing 50% cell growth inhibition (GI50), total cell growth inhibition (TGI 0% growth) and 50% cell death (LC50, […]) compared with the control was calculated.
# (§3) Each cancer type represents the average of six to nine different cancer cell lines.
# [9] = tested on: CNS cancer cell lines; experiment: NCI in vitro anticancer activity (SRB assay), CNS panel; assay type: cell-based; conditions: Homo sapiens
# Protocol: as §2, §3
# [10] = tested on: Colon cancer cell lines; experiment: NCI in vitro anticancer activity (SRB assay), Colon panel; assay type: cell-based; conditions: Homo sapiens
# Protocol: as §2, §3
# [11] = tested on: Non-small-cell-lung cancer cell lines; experiment: NCI in vitro anticancer activity (SRB assay), Non-small-cell-lung panel; assay type: cell-based; conditions: Homo sapiens
# Protocol: as §2, §3
# [12] = tested on: Melanoma cancer cell lines; experiment: NCI in vitro anticancer activity (SRB assay), Melanoma panel; assay type: cell-based; conditions: Homo sapiens
# Protocol: as §2, §3
# [13] = tested on: Leukemia cancer cell lines; experiment: NCI in vitro anticancer activity (SRB assay), Leukemia panel; assay type: cell-based; conditions: Homo sapiens
# Protocol: as §2, §3
# [14] = tested on: Renal cancer cell lines; experiment: NCI in vitro anticancer activity (SRB assay), Renal panel; assay type: cell-based; conditions: Homo sapiens
# Protocol: as §2, §3
# [15] = tested on: Prostate cancer cell lines; experiment: NCI in vitro anticancer activity (SRB assay), Prostate panel; assay type: cell-based; conditions: Homo sapiens
# Protocol: as §2, §3
# [16] = tested on: Ovarian cancer cell lines; experiment: NCI in vitro anticancer activity (SRB assay), Ovarian panel; assay type: cell-based; conditions: Homo sapiens
# Protocol: as §2, §3
# [17] = tested on: sixty human tumour cells derived from nine cancer panels; experiment: NCI in vitro anticancer activity (SRB assay), mean graph midpoints over sixty cell lines; assay type: cell-based
# Protocol: as §2
# [18] = 48 h, read-out: Log10 LC50 (concentration in mol/L causing 50% lethality) (converted)
smiles,measurement,setting,value
"COc1cc2c(cc1O)N=CC1CCCN1C2=O (centres unmarked) [DC-81, reference compound]",ΔTm after incubation at 37° C. for 0 h,[1],0.3 °C
same,ΔTm after incubation at 37° C. for 18 h,[1],0.7 °C
"COc1cc2c(cc1OCCCCOc1ccc(-c3cc4ccccc4c4ccccc34)cc1)N=C[C@@H]1CCCN1C2=O [Compound 6b, (11aS)-7-methoxy-8-4-[4-(9-phenanthryl)phenoxy]butoxy-2,3,5,11a-tetrahydro-1H-benzo[e]pyrrolo[1,2-a][1,4]diazepin-5-one]",ΔTm after incubation at 37° C. for 0 h,[1],0.3 °C
same,ΔTm after incubation at 37° C. for 18 h,[1],0.5 °C
same,"Preliminary in vitro cytotoxicity data, Colon HCT-15",[2],77
same,"Preliminary in vitro cytotoxicity data, Ovary OVCAR-5",[3],93
same,"Preliminary in vitro cytotoxicity data, Lung A-549",[4],50
same,"Preliminary in vitro cytotoxicity data, Neuroblastoma IMR-32",[5],67
same,"Preliminary in vitro cytotoxicity data, Colon 502713",[6],72
same,"Preliminary in vitro cytotoxicity data, Liver HEP-2",[7],49
"COc1cc2c(cc1OCCCOc1ccc(-c3cc4ccccc4c4ccccc34)cc1)N=C[C@@H]1CCCN1C2=O [Compound 6a, (11aS)-7-methoxy-8-3-[4-(9-phenanthryl)phenoxy]propoxy-2,3,5,11a-tetrahydro-1H-benzo[e]pyrrolo[1,2-a][1,4]diazepin-5-one]",ΔTm after incubation at 37° C. for 0 h,[1],1.0 °C
same,ΔTm after incubation at 37° C. for 18 h,[1],1.8 °C
same,LC50 (50% lethal concentration),[8]; [18],8710 nM
same,GI50,"[8]; Breast panel average, 48 h exposure, SRB, read-out: Log10 GI50 (concentration in mol/L) (converted)",339 nM
same,LC50,[9]; [18],4680 nM
same,GI50,"[9]; CNS panel average, 48 h exposure, SRB, read-out: Log10 GI50 (concentration in mol/L) (converted)",813 nM
same,CC50,[10]; [18],4900 nM
same,GI50,"[10]; Colon panel average, 48 h exposure, SRB, read-out: Log10 GI50 (concentration in mol/L) (converted)",776 nM
same,LC50,[11]; [18],5370 nM
same,GI50,"[11]; Non-small-cell-lung panel average, 48 h exposure, SRB, read-out: Log10 GI50 (concentration in mol/L) (converted)",776 nM
same,"Preliminary in vitro cytotoxicity data, Colon HCT-15",[2],99
same,"Preliminary in vitro cytotoxicity data, Ovary OVCAR-5",[3],98
same,"Preliminary in vitro cytotoxicity data, Lung A-549",[4],88
same,"Preliminary in vitro cytotoxicity data, Neuroblastoma IMR-32",[5],85
same,"Preliminary in vitro cytotoxicity data, Colon 502713",[6],69
same,"Preliminary in vitro cytotoxicity data, Liver HEP-2",[7],58
same,LC50,[12]; [18],4680 nM
same,GI50,"[12]; Melanoma panel average, 48 h exposure, SRB, read-out: Log10 GI50 (concentration in mol/L) (converted)",692 nM
same,CC50,[13]; [18],15100 nM
same,GI50,"[13]; Leukemia panel average, 48 h exposure, SRB, read-out: Log10 GI50 (concentration in mol/L) (converted)",195 nM
same,LC50 (50% lethal concentration),[14]; [18],3630 nM
same,GI50,"[14]; Renal panel average, 48 h exposure, SRB, read-out: Log10 GI50 (concentration in mol/L) (converted)",490 nM
same,LC50 (concentration causing 50% tumour cell death),[15]; [18],3890 nM
same,GI50,"[15]; Prostate panel average, 48 h exposure, SRB, read-out: Log10 GI50 (concentration in mol/L) (converted)",398 nM
same,CC50,[16]; [18],3720 nM
same,GI50,"[16]; Ovarian panel average, 48 h exposure, SRB, read-out: Log10 GI50 (concentration in mol/L) (converted)",501 nM
same,Log10 TGI mean graph midpoint (MG_MID),"[17]; 48 h continuous drug exposure, SRB assay, mean over human tumour cell lines",−5.76
same,GI50,"[17]; 48 h continuous drug exposure, SRB assay, mean over human tumour cell lines, read-out: Log10 GI50 mean graph midpoint (MG_MID) (converted)",525 nM
same,CC50,"[17]; Homo sapiens, 48 h, read-out: Log10 LC50 mean graph midpoint (MG_MID) (converted)",5500 nM
"COc1cc2c(cc1OCCCCCOc1ccc(-c3cc4ccccc4c4ccccc34)cc1)N=C[C@@H]1CCCN1C2=O [Compound 6c, (11aS)-7-methoxy-8-(5-[4-(9-phenanthryl)phenoxy]pentyloxy)-2,3,5,11a-tetrahydro-1H-benzo[e]pyrrolo[1,2-a][1,4]diazepin-5-one]",ΔTm after incubation at 37° C. for 0 h,[1],0.1 °C
same,ΔTm after incubation at 37° C. for 18 h,[1],0.2 °C
same,"Preliminary in vitro cytotoxicity data, Colon HCT-15",[2],79
same,"Preliminary in vitro cytotoxicity data, Ovary OVCAR-5",[3],98
same,"Preliminary in vitro cytotoxicity data, Lung A-549",[4],36
same,"Preliminary in vitro cytotoxicity data, Neuroblastoma IMR-32",[5],73
same,"Preliminary in vitro cytotoxicity data, Colon 502713",[6],74
same,"Preliminary in vitro cytotoxicity data, Liver HEP-2",[7],65
